The source of these data is patent US9539298B2, “Lissencephaly therapeutic agent” (OSAKA CITY UNIVERSITY, priority 2010, dated 2017).

The subject of this assay is LIS1 heterozygous mice (lissencephaly model mice). Kind of assay: Behavior analysis: Gait Analysis. Type of assay: in vivo, mouse. The following applies: 200 μg/g per day oral; for Swing-to-Stance Ratio: FIG. 13. How it is done:
To conduct a behavior analysis experiment, wild-type mice and Lis1 (^+/−) heterozygous mice were divided into five groups (C group, M1 group, M2 group, M3 group, and M4 group). The details regarding the mice in each group are described below. CE-2 (CLEA Japan, Inc.) was used as mice feed. The wild-type mice and heterozygous mice used for this experiment were prepared in the same method as described in the above section “Preparation of LIS1 gene hetero-deficient mice (LIS1 heterozygous mice).”
M2 group: LIS1 heterozygous mice prepared as follows. SNJ-1945 was dissolved in dimethyl sulfoxide (Sigma, D-5879) at a concentration of 100 mg/ml, and administered to pregnant mice from Day 9.5 of the embryonic period (E9.5) in an amount of 200 μg per gram of maternal body weight per day. The administration was performed by adding SNJ-1945 to mice feed. During the postnatal period, the administration was continued in the same manner as in M3 group below. M3 group: LIS1 heterozygous mice prepared as follows. […]
By adding SNJ-1945 to the mice feed (CE-2, CLEA Japan, Inc.), SNJ-1945 was continuously administered to the mice so that the administration amount became 200 μg per gram of body weight per day through oral administration. For a behavior analysis experiment, 12 to 16 mice were grouped to be subjected to preliminary breeding in the behavior experiment facility for 1 to 2 weeks; thereafter, the behavior of the mice was analyzed at an age of about 9 to 12 weeks. After the behavior analysis experiment, a gene type was determined for all mice.
Statistical processing of experiment data of mice behavior analysis was conducted using Stat View (SAS institute) statistics software. ANOVA assay (analysis of variance between multiple groups) was conducted for all five groups, and a group with a risk rate (p value) of less than 5% (p<0.05) was determined to have a significant difference. […]

Consider `COCCOCCOC(=O)N[C@@H](CC(C)C)C(=O)N[C@@H](Cc1ccccc1)C(=O)C(=O)NC1CC1` [compound 17, ((1S)-1-((((1S)-1-Benzyl-2,3-dioxo-3-(cyclopropylamino)propyl)amino)carbonyl)-3-methylbutyl)carbamic acid 5-methoxy-3-oxapentyl ester], for which the “% Swing” value (M2, M3 and M4 groups, FIG. 12) is listed as “there was no significant difference compared with C group”. Moreover, the “Swing-to-Stance Ratio” value reads like this: (M2 group (administration from E9.5)) “recovered to a level at which there was no significant difference with C group”; (M3 and M4 groups (administration from birth / postnatal Day 10)) “closer to 1 than M1 group”.
